Here are results for two molecules from publication PMC10272271, “MAM-2201 acute administration impairs motor, sensorimotor, prepulse inhibition, and memory functions in mice: a comparison with its analogue AM-2201” (Psychopharmacology, 2023).

Assay [1] relates to CD-1 male mice. The arrangement: method as in Bilel et al. ([2020]). To be noted: i.p., value ± SEM, elaborated from earlier data, ref Bilel et al. ([2020]); cited from earlier work.
Assay [2] relates to CD-1 male mice. Nature of the assay: Acoustic startle and pre-pulse inhibition (PPI) test. The format is in vivo, mouse.

On to `O=C(c1cccc2ccccc12)c1cn(CCCCCF)c2ccccc12` [AM-2201, 1-[(5-Fluoropentyl)-1H-indol-3-yl](1-naphthylenyl) methanone], for which, in the assay on CD-1 male mice [1], the “ED50 (mg/kg), Visual object” value is 1.976 ± 0.063 mg/kg.

As for `Cc1ccc(C(=O)c2cn(CCCCCF)c3ccccc23)c2ccccc12` [MAM-2201, 1-[(5-fluoropentyl)-1H-indol-3-yl](4-methyl-1-naphthalenyl) methanone], in the assay with CD-1 male mice [2] (only at 1 mg/kg i.p., at 15 and 120 min), the “effect on startle amplitude” value is “reduced”. In addition, the “effect on PPI (prepulse startle intensity)” value with CD-1 male mice [2] (prepulse 68 dB, 15 min, 0.1 and 1 mg/kg i.p.) is reported as “significant decrease”. Further, the “decrease of PPI” value in the assay with CD-1 male mice [2] (prepulse 68 dB, 120 min, 0.1 mg/kg i.p.) is reported as ~ 19%; in the assay on CD-1 male mice [2] (prepulse 68 dB, 120 min, 1 mg/kg i.p.) it was about 40%; in the assay with CD-1 male mice [2] (prepulse 75 dB, 15 min, 0.1 mg/kg i.p.), ~ 28%; in the assay with CD-1 male mice [2] (prepulse 75 dB, 15 min, 1 mg/kg i.p.), ~ 41%; in the assay with CD-1 male mice [2] (prepulse 75 dB, 120 min, 1 mg/kg i.p.), ~ 34%; with CD-1 male mice [2] (prepulse 85 dB, 15 min, 0.1 mg/kg i.p.), ~ 19%. The “decrease of PPI” value was ~ 37% in the assay on CD-1 male mice [2] (prepulse 85 dB, 15 min, 1 mg/kg i.p.); ~ 19% with CD-1 male mice [2] (prepulse 85 dB, 120 min, 0.1 mg/kg i.p.); ~ 37% in the assay with CD-1 male mice [2] (prepulse 85 dB, 120 min, 1 mg/kg i.p.).
